# Measured values as given in patent US11781114B2, “Materials and methods for expansion of stem cells” (FLORIDA STATE UNIVERSITY RESEARCH FOUNDATION, INC., priority 2014, dated 2023).
# Entries after “also recorded” stand apart in the source; their conditions may differ.
# Experiments:
# Assay type in all cases: cell-based, human
# hMSC aggregates [1] = test: Morphology by SEM, H&E histology and F-actin staining; settings: for cell morphology in the aggregates (SEM and histology) / outer boundary of aggregates (H&E, F-actin staining of sections): treated aggregates vs control aggregates; for hMSC morphology on 2D planar surface (F-actin staining): nocodazole treatment
# Procedure: For SEM, the aggregate samples were fixed in 4% paraformaldehyde (PFA), dehydrated through a graded series of ethanol, incubated in hexamethyldisilazane, and vacuum dried overnight. The samples were mounted onto carbon-coated chucks, sputter-coated with gold in an argon atmosphere for 4 minutes at 2 kV, and analyzed on a SEM (JSM-7401F) (JEOL, Tokyo, Japan). For immunostaining, the cells were fixed with 4% PFA, permeabilized with 0.5% Triton X-100, blocked with 1.0% BSA, incubated with primary antibody, and imaged with an Olympus IX70 (Center Valley, Pa.) microscope. For histology, hematoxylin-eosin (H&E) staining was performed following the prior reported method (Kim and Ma 2012). hMSC aggregates were fixed in 10% formalin, dehydrated and embedded in paraffin wax; 10 μm sections were cut and stained with Lerner-2 Hematoxylin (Lerner Laboratories, Pittsburgh, Pa.) and Eosin-Y w/ Phloxine (Richard-Allan Scientific, Kalamazoo, Mich.) by standard procedures (Kim and Ma 2012). Images were captured with Olympus IX70 microscope with MagnaFire SP 2.1B software.
# hMSC aggregates [2] = test: Aggregate spreading on glass coverslip and fusion on ULA surface; settings: for aggregate spreading on glass coverslip / fusion of adjacent aggregates on ULA surface: aggregates treated for 5 days
# Procedure: To test re-adhesion and fusion, the aggregates from various treatment conditions were plated on glass coverslip for re-adhesion or placed adjacently on ULA surface for fusion. Images were captured with Olympus IX70 microscope and analyzed by ImageJ software.
# hMSC aggregates [3] = test: Cell survival and packing density of aggregates by DNA content (PicoGreen)
# Procedure: The DNA content of the individual aggregates was used to calculate cell number. Briefly, individually collected hMSC aggregates were washed with phosphate buffered saline (PBS) and digested with proteinase K overnight. PicoGreen (Life Technologies) was added to triplicate samples and a DNA standard in a 96-well plate. The cell numbers in aggregates were determined by the PicoGreen fluorescence intensity using 9.3 pg/cell as determined in our prior study (Kim and Ma 2012). […] The packing densities were calculated using cell number divided by aggregate volume assuming a spherical shape. At least six aggregates were used in each condition.
# IL-6 = test: Secreted IL-6 in conditioned media (ELISA); settings: treated 3D aggregates
# Procedure: (§1) Caspase 3/7 activity was measured by Caspase-Glo 3/7 assay systems (Promega, Madison, Wis.). Caspase-Glo 3/7 working buffer was added to triplicate samples containing aggregates and culture media in 96-well [sequence] 200 white immunology plate (Greiner Bio-One, Monroe, N.C.). The results were read by a luminescence plate reader and normalized to cell number (Biotek Instruments, Winooski, Vt.). Secreted PGE-2 and IL-6 in conditioned media were quantified using a PGE-2 Parameter Assay Kit and IL-6 DuoSet ELISA kits, respectively (R&D Systems, Minneapolis, Minn.). Total secreted PGE-2 and IL-6 were determined by subtracting cytokine concentrations in culture media controls and normalized to the cell number in the aggregates.
# hMSC aggregates [4] = test: hMSC aggregate formation and compaction (aggregate size) with cytoskeleton modulators; parameters: aggregate compaction vs non-treated control: dose or concentration left out as unconfirmed; settings: for aggregate compaction / aggregate diameter: 0.2 to 0.6 μM; for aggregate compaction vs non-treated control: nocodazole 3D treatment
# Procedure: hMSCs from monolayer culture were trypsinized and 100 μL media containing 5,000 cells were added in each well of an ultra-low attachment (ULA) 96-well plate with round-bottom (Corning, Corning, N.Y.) for overnight. To analyze size-dependent ATP contents, aggregates containing 500, 2,000, and 5,000 cells were used following the same method. Suspended single hMSCs spontaneously self-assembled into one aggregate per well. Aggregates were cultured individually up to 7 days with media change every two days. The aggregates were tracked individually and the morphologies were imaged with an Olympus IX70 microscope (Center Valley, Pa.).
# Cytochalasin D (cytoD), lysophosphatidic acid (LPA), Y-27632, nocodazole were added into culture media to final concentrations of 0.2 to 0.6 μM, 2.0 to 10.0 μM, 2.0 to 10 μM, and […], respectively. To test the temporal effects of actin modulators on aggregate formation, cells were treated with media containing cytoD and LPA during monolayer culture prior to aggregate formation (termed “2D Pretreatment”) or 12 hours after aggregate formation in ULA plates (termed “3D Treatment). Only 3D treatments were performed for Y-27632 and nocodazole.
# Morphology of the aggregates was visualized using an Olympus IX70 microscope and the images recorded. The images were processed and the areas of the individual aggregates were calculated using ImageJ software (rsb.info.nih.gov/ij/). The DNA content of the individual aggregates was used to calculate cell number. Briefly, individually collected hMSC aggregates were washed with phosphate buffered saline (PBS) and digested with proteinase K overnight. PicoGreen (Life Technologies) was added to triplicate samples and a DNA standard in a 96-well plate. The cell numbers in aggregates were determined by the PicoGreen fluorescence intensity using 9.3 pg/cell as determined in our prior study (Kim and Ma 2012). DNA assay detects double-stranded DNA that may also be present in dead cells with intact DNA. However, this population in the aggregates is low, and the yield of live cells measured by DNA assay is close to cell count using other methods such as flow cytometry (Ylostalo et al. 2014). The packing densities were calculated using cell number divided by aggregate volume assuming a spherical shape. At least six aggregates were used in each condition.
# Caspase 3/7 = test: Caspase-Glo 3/7 assay; settings: for caspase 3/7 activity in 3D aggregates: normalized to cell number
# Procedure: as §1
# PGE-2 = test: Secreted PGE-2 in conditioned media (Parameter Assay Kit); settings: treated 3D aggregates
# Procedure: as §1
# hMSC aggregates [5] = test: hMSC aggregate formation and compaction (aggregate size) with cytoskeleton modulators; settings: cytoD 2D pretreatment, concentration above 0.6 μM (high concentration)
# [6] = 0.6 μM cytoD 3D treatment, day 5
# [7] = Q-VD-OPh, after three days of culture
molecule,measurement,setting,value
C[C@@H](N)[C@H]1CC[C@H](C(=O)Nc2ccncc2)CC1 [Y-27632],cell morphology in the aggregates (SEM and histology),hMSC aggregates [1],large interstitial space and exhibit round morphology; also recorded: loosely packed and exhibited spherical morphology with abundant interstitial space
same,"outer boundary of aggregates (H&E, F-actin staining of sections)",hMSC aggregates [1],disintegrated outer boundaries; also recorded: discontinuous outer boundary; also recorded: loosely packed with no spreading at the boundary
same,aggregate spreading on glass coverslip,hMSC aggregates [2],readily re-adhered and spread on glass coverslips
same,fusion of adjacent aggregates on ULA surface,hMSC aggregates [2],fused when adjacently placed on ULA surface; also recorded: reduced tendency to fuse
same,cell viability / cell survival vs control aggregates,"hMSC aggregates [3]; 10 μM Y-27632, 5 days of treatment",lower than non-treated control; also recorded: comparable or even less
same,decrease in cell packing density compared to control aggregates,"hMSC aggregates [3]; 10 μM Y-27632, day 5",38.7%
same,cell packing density vs control (in words),"hMSC aggregates [3]; Y-27632, day 5",significantly lower
same,IL-6 secretion of 3D aggregates,IL-6,limited effects
same,increase in aggregate diameter compared to control aggregates,"hMSC aggregates [4]; 10 μM Y-27632, day 5",6.7%
same,aggregate compaction,"hMSC aggregates [4]; Y-27632 3D treatment, 10 μM",prevented aggregate compaction; also recorded: reduced aggregate compaction
same,caspase 3/7 activity in 2D adherent culture,Caspase 3/7,increased caspase 3/7 activity
same,caspase 3/7 activity in 3D aggregates,Caspase 3/7,highest caspase 3/7 activity; also recorded: increased caspase 3/7 activity
same,PGE-2 secretion of 3D aggregates,PGE-2,limited effects
"C=C1[C@@H](C)[C@H]2[C@H](Cc3ccccc3)NC(=O)[C@]23[C@H](OC(C)=O)/C=C/[C@@](C)(O)C(=O)[C@@H](C)C/C=C/[C@H]3[C@@H]1O [cytoD, Cytochalasin D]",cell morphology in the aggregates (SEM and histology),hMSC aggregates [1],large interstitial space and exhibit round morphology; also recorded: loosely packed and exhibited spherical morphology with abundant interstitial space
same,"outer boundary of aggregates (H&E, F-actin staining of sections)",hMSC aggregates [1],loosely packed with no spreading at the boundary
same,"outer boundary of aggregates (H&E, F-actin staining of sections)",hMSC aggregates [1]; listed as CytoD,disintegrated outer boundaries; also recorded: discontinuous outer boundary
same,"outer boundary of aggregates (H&E, F-actin staining of sections)",hMSC aggregates [1]; listed as cytochalasin D,disrupted the mechanically polarized outer layer
same,hMSC aggregation (aggregate formation),hMSC aggregates [5],disrupted hMSC aggregation
same,hMSC aggregation (aggregate formation),hMSC aggregates [5]; listed as CytoD,prevented hMSC aggregation
same,aggregate spreading on glass coverslip,hMSC aggregates [2],abolishes; also recorded: did not spread on glass coverslips; also recorded: completely prevented aggregate spreading on glass coverslip
same,fusion of adjacent aggregates on ULA surface,hMSC aggregates [2],abolishes; also recorded: nor fused; also recorded: completely prevented
same,fusion and adhesion properties of hBMSC aggregates,hMSC aggregates [2]; hBMSC aggregates on ULA plates / glass,abrogated their fusion and adhesion properties; also recorded: abrogates these properties
same,cell viability / cell survival vs control aggregates,hMSC aggregates [3]; [6],significantly reduced cell viability; also recorded: significantly lower cell survival
same,packing density vs control aggregates,hMSC aggregates [3]; [6],significantly reduced; also recorded: significantly lower
same,IL-6 secretion of 3D aggregates,IL-6,limited effects
same,aggregate compaction,"hMSC aggregates [4]; cytoD 2D pretreatment, lower concentrations",prevented aggregate compaction
same,aggregate compaction,"hMSC aggregates [4]; cytoD 2D pretreatment, lower concentrations, listed as CytoD",reduced compaction
same,aggregate integrity,"hMSC aggregates [4]; cytoD 3D treatment, 0.6 μM",remained intact
same,aggregate compaction / aggregate diameter,hMSC aggregates [4]; cytoD 3D treatment,dose-dependent reduction on compaction
same,aggregate compaction / aggregate diameter,"hMSC aggregates [4]; cytoD 3D treatment, listed as CytoD",reduced compaction; also recorded: Dose-dependent decline of aggregate diameters
same,caspase 3/7 activity in 2D adherent culture,Caspase 3/7,significantly increased caspase 3/7 activity
same,caspase 3/7 activity in 3D aggregates,Caspase 3/7,comparable apoptotic activity
same,PGE-2 secretion of 3D aggregates,PGE-2,limited effects
CC(C)[C@H](NC(=O)c1ccc2ccccc2n1)C(=O)N[C@@H](CC(=O)O)C(=O)COc1c(F)cccc1F [Q-VD-OPh],cell packing density vs control,hMSC aggregates [3]; [7],increased cell packing density; also recorded: higher packing density
same,cell viability / survival vs control,hMSC aggregates [3]; [7],improved cell survival; also recorded: significantly increased cell viability
same,IL-6 secretion of 3D aggregates,IL-6,attenuated to basal levels
same,aggregate compaction vs control,hMSC aggregates [4]; [7],significantly reduced cell compaction
same,PGE-2 secretion of 3D aggregates,PGE-2,attenuated to basal levels
COC(=O)Nc1nc2cc(C(=O)c3cccs3)ccc2[nH]1 [nocodazole],hMSC morphology on 2D planar surface (F-actin staining),hMSC aggregates [1],drastic changes of cell morphology
same,hMSC morphology on 2D planar surface (F-actin staining),hMSC aggregates [1]; listed as Nocodazole,significantly altered hMSC morphology
same,aggregate spreading on glass coverslip,hMSC aggregates [2],readily spread on adherent surface; also recorded: readily re-adhered and spread on glass coverslips; also recorded: spread on glass coverslip
same,fusion of adjacent aggregates on ULA surface,hMSC aggregates [2],fuse with neighboring aggregates; also recorded: fused when adjacently placed on ULA surface; also recorded: readily fused
same,aggregate compaction vs non-treated control,hMSC aggregates [4],comparable contractility with control aggregates; also recorded: comparable or higher compaction
same,aggregate compaction vs non-treated control,hMSC aggregates [4]; listed as Nocodazole,faster compaction
lysophosphatidic acid [LPA],aggregate spreading on glass coverslip,hMSC aggregates [2],readily re-adhered and spread on glass coverslips; also recorded: spread on glass coverslip
same,fusion of adjacent aggregates on ULA surface,hMSC aggregates [2],fused when adjacently placed on ULA surface; also recorded: readily fused
same,viability / cell survival vs control,"hMSC aggregates [3]; LPA up to 10 μM, 5 days 3D treatment",comparable cell survival; also recorded: limited effects
same,cell packing density vs control,"hMSC aggregates [3]; LPA, 5 days 3D treatment",comparable
same,aggregate compaction vs control,"hMSC aggregates [4]; LPA up to 10 μM, 2D pretreatment and 3D treatment",minimal impact on aggregate compaction; also recorded: declined at the same rate as control; also recorded: limited effects
same,caspase 3/7 activity in 2D adherent culture,Caspase 3/7,increased caspase 3/7 activity
same,caspase 3/7 activity in 3D aggregates,Caspase 3/7,increased caspase 3/7 activity
